The text below walks through data of US7105527B2, “N4-acylcytosine nucleosides for treatment of viral infections” (priority 2001, dated 2006).

Where two headings read alike, the source gives them in different places.

Broadly, the EC90 is the concentration needed for an effect of 90%. As a reminder, the IC50 is the concentration needed to halve the response being measured.

For one data set, the system named is HIV-1LAl. Put plainly: Anti-HIV (in PBM cells) assay, reverse transcriptase readout. Type of data set: cell-based. The method, then:
Anti-HIV-1 activity of the compounds was determined in human peripheral blood mononuclear (PBM) cells as described previously (Schinazi […]., Cannon D., Mathis R., Lloyd R. M. Jr., […]., St. Clair M., Wilson J., Furman P. A., Painter G., Choi […]. Antimicrob. Agents Chemother. 1992, 36, 2423; Schinazi […]., Cannon D., Xie […]., Smith G., Hahn E. Antimicrob. Agents Chemother. 1990, 34, 1061). Stock solutions ([…]) of the compounds were prepared in sterile DMSO and then diluted to the desired concentration in growth medium. […] Virus obtained from the cell supernatant was quantified on day 6 after infection by a reverse transcriptase assay using (rA)n.(dT)12.18 as template-primer. […] AZT was included as positive control. The antiviral EC50 and EC90 were obtained from the concentration-response curve using the median effective method described previously (Chou […]. Enzyme Regul. 1984, 22, 27-55; Belen'kii M. S. & Schinazi R. F. Antiviral Res. 1994, 25, 1-11).

A further data set concerns HIV-1RF. Kind of data set: Anti-HIV (in MT-2 cells) assay, viral RNA accumulation. Type of data set: cell-based. Particulars: EC90, MT-2 cells, read-out: Anti-HIV-1 activity in different cells (EC90, μM) MT-2. How it is done:
(§1) In a second antiviral testing system, the potency of the compounds was determined by measurement of viral RNA accumulation in HIV-1RF infected MT-2 cells (Bacheler L T, Paul M, Otto M J, Jadhav P K, Stone B A & Miller J A (1994) An assay for HIV RNIn infected cell lysates, and its use for rapid evaluation of antiviral efficacy. Antivir. Chem. Chemother. 5:111–121). The virus titer was established to determine the dilution producing 15 to 30 ng/RNA per well of HIV RNIn 3 days of infection. HIV-1 RNA was quantified using biotinylated capture and alkaline phosphatase-derivatized reporter oligonucleotides as described previously (Charvet A-S, Camplo M, Faury P, Graciet J C, Mourier N, Chermann J C & Kraus J L (1994) Inhibition of human immunodeficiency virus type 1 replication by phosphonoformate- and phosphonoacetate-2′,3′-dideoxy-3′-thiacytidine conjugates. J. Med. Chem. 37:2216–2223). In a third system, the effect of analogs on the replication of HIV-1NL4-3 was determined via the InterCompany Consortium consensus p24 assay as previously described (Jadhav P K & MacKay M F (1997) Cyclic urea amide: HIV-1 protease inhibitors with low nanomolar potency against both wild types and protease inhibitor resistant mutants of HIV. J. Med. Chem. 40:181–190). Recombinant viruses were recovered by transfecting the appropriate NL4-3 plasmid by lipofection. Virus stocks recovered 7 to 10 days post-transfection were titered on MT-4 cells to determine if the dilution produced 1,000 to 3,000 ng p24 in 4 days. This dilution was then used in drug susceptibility assays, where drug was added 24 h post infection of cells, and p24 quantified by ELISA 3 days later.

A short description of data set [1]: Cytotoxicity assay in PBM cells. In kind it is cell-based, human. Particulars: human, human PBM cells, Table 1, read-out: Cytotoxicity in different cells (IC50, μM) PBM. How it is done:
(§2) The toxicity of the compounds was assessed in Vero, human PBM, CEM (human lymphoblastoid), MT-2, and HepG2 cells, as described previously (Schinazi […]., Cannon D. L., Xie […]., Smith […]. […] Cycloheximide was included as positive cytotoxic control, and untreated cells exposed to solvent were included as negative controls. The cytotoxicity IC50 was obtained from the concentration-response curve using the median effective method described previously (Chou […]. […] Belen'kii M. S. & Schinazi R. F.

The nature of data set [2]: Cytotoxicity assay in HepG2 cells. The following applies: human, Table 1, read-out: Cytotoxicity in different cells (IC50, μM) HepG2. Type of data set: cell-based. How it is done: as §2
Data set [3] in a line: Cytotoxicity assay in MT-2 cells. Type of data set: cell-based. Particulars: human, Table 1, read-out: Cytotoxicity in different cells (IC50, μM) MT-2. How it is done:
as §2

Data set [4] is described as follows: Cytotoxicity assay in Vero cells. In kind it is cell-based. The following applies: African green monkey, Table 1, read-out: Cytotoxicity in different cells (IC50, μM) Vero. How it is done: as §2
The next data set concerns HIV-1NL4-3. Kind of data set: Anti-HIV assay in MT-4 cells, consensus p24 assay. The following applies: Human immunodeficiency virus 1, MT4, Table 1, read-out: Anti-HIV-1 activity in different cells (EC90, μM) MT-4. Type of data set: cell-based. How it is done: as §1
The nature of data set [5]: Cytotoxicity assay in CEM cells. Type of data set: cell-based, human. Particulars: human, CEM lymphoblastoid cells, Table 1, read-out: Cytotoxicity in different cells (IC50, μM) CEM. The method, then: as §2
A further data set deals with human PBM cells. Kind of data set: Cytotoxicity assay in PBM cells. Type of data set: cell-based. The following applies: Table 2, read-out: Cytotoxicity in different cells (IC50, μM) PBM. How it is done: as §2
A further data set has as its system HepG2 cells. Kind of data set: Cytotoxicity assay in HepG2 cells. Type of data set: cell-based. The following applies: Table 2, read-out: Cytotoxicity in different cells (IC50, μM) HepG2. How it is done:
as §2

The subject of a further data set is MT-2 cells. Kind of data set: Cytotoxicity assay in MT-2 cells. Type of data set: cell-based. Particulars: Table 2, read-out: Cytotoxicity in different cells (IC50, μM) MT-2. How it is done:
as §2

A further data set concerns Vero cells. Put plainly: Cytotoxicity assay in Vero cells. Type of data set: cell-based. Particulars: Table 2, read-out: Cytotoxicity in different cells (IC50, μM) Vero. The method, then: as §2
The test system of data set [6] is CEM (human lymphoblastoid) cells. Kind of data set: Cytotoxicity assay in CEM cells. The following applies: Table 2, read-out: Cytotoxicity in different cells (IC50, μM) CEM. Type of data set: cell-based. The method, then: as §2
Setting [7] is: Human immunodeficiency virus 1, PBMC, Table 1, read-out: Anti-HIV-1 activity in different cells (EC90, μM) PBM.
[8] abbreviates: Human immunodeficiency virus 1, MT2, Table 1.

As for `O=C(Nc1nc(=O)n([C@H]2CC[C@@H](CO)O2)cc1F)c1ccc(I)cc1` [Compound 10, β-D-2′,3′-Dideoxy-5-fluoro-N^4-(4-iodobenzoyl)cytidine], the EC90 came out at 0.019 µM in the data set with HIV-1LAl (setting [7]), 0.025 µM in the data set with HIV-1RF (setting [8]) and 0.17 µM in the data set on HIV-1NL4-3. Also, the IC50 was > 100 µM in data set [1]; > 100 µM in [2]; > 50 µM in data set [3]; > 100 µM in [4]; > 100 µM in data set [5].
Turning to `O=C(Nc1nc(=O)n([C@H]2CC[C@@H](CO)O2)cc1F)c1ccc(F)cc1` [Compound 11, β-D-2′,3′-Dideoxy-5-fluoro-N^4-(4-fluorobenzoyl)cytidine], the EC90 in the data set on HIV-1LAl (setting [7]) worked out at 0.027 µM; with HIV-1RF (setting [8]), 0.32 µM; in the data set on HIV-1NL4-3 it was 0.61 µM. The IC50 in [1] is > 100 µM; in data set [2], > 100 µM; in data set [3], > 50 µM; in data set [4] it was > 100 µM; in data set [5] it was 45.7 µM.
On to `O=C(Nc1nc(=O)n([C@H]2CC[C@@H](CO)O2)cc1F)c1ccc(Cl)cc1` [Compound 12, β-D-N^4-(4-chlororobenzoyl)-2′,3′-dideoxy-5-fluorocytidine], for which the values for the EC90 in the data set on HIV-1LAl (setting [7]), with HIV-1RF (setting [8]) and in the data set with HIV-1NL4-3 were 0.02 µM, 0.22 µM and 0.37 µM, respectively. The IC50 is > 100 µM in data set [1]; 7.3 µM in data set [2]; > 50 µM in data set [3]; > 100 µM in data set [4]; 33.4 µM in [5].
In the case of `O=C(Nc1nc(=O)n([C@H]2CC[C@@H](CO)O2)cc1F)c1ccc(Br)cc1` [Compound 13, β-D-N^4-(4-bromobenzoyl)-2′,3′-dideoxy-5-fluorocytidine], the EC90 with HIV-1LAl (setting [7]) came to 0.03 µM; in the data set with HIV-1RF (setting [8]), 0.14 µM; in the data set with HIV-1NL4-3 it was 0.3 µM. Moreover, the IC50 in data set [1] was > 100 µM; in data set [2], > 100 µM; in data set [3] it was > 50 µM; in data set [4], > 100 µM; in data set [5], 31.6 µM.
Consider `O=C(Nc1nc(=O)n([C@H]2CC[C@@H](CO)O2)cc1F)c1cccc(F)c1` [Compound 14, β-D-2′,3′-Dideoxy-5-fluoro-M-(3-fluorobenzoyl)cytidine], for which the EC90 is 0.106 µM in the data set with HIV-1LAl (setting [7]), 0.46 µM with HIV-1RF (setting [8]) and 0.43 µM in the data set with HIV-1NL4-3. Further, the IC50 was > 100 µM in [1]; > 100 µM in data set [2]; > 50 µM in data set [3]; > 100 µM in data set [4]; 80.8 µM in [5].
Take `O=C(Nc1nc(=O)n([C@H]2CC[C@@H](CO)O2)cc1F)c1cccc(Cl)c1` [Compound 15, β-D-N^4-(3-Chlorobenzoyl)-2′,3′-dideoxy-5-fluorocytidine]: the EC90 with HIV-1LAl (setting [7]) is 0.08 µM; with HIV-1RF (setting [8]), 0.4 µM; in the data set on HIV-1NL4-3 it was 0.51 µM. Besides, the IC50 in data set [1] was > 100 µM; in data set [2] it was > 100 µM; in data set [3], > 50 µM; in data set [4], 91.6 µM; in data set [5], 68.1 µM.
Consider `O=C(Nc1nc(=O)n([C@H]2CC[C@@H](CO)O2)cc1F)c1cccc(Br)c1` [Compound 16, β-D-N^4-(3-Bromobenzoyl)-2′,3′-dideoxy-5-fluorocytidine], for which the EC90 worked out at 0.145 µM in the data set on HIV-1LAl (setting [7]), 0.51 µM in the data set with HIV-1RF (setting [8]) and 0.42 µM in the data set on HIV-1NL4-3. Also, the IC50 in data set [1] is > 100 µM; in data set [2], > 100 µM; in [3] it was > 50 µM; in data set [4], 80.6 µM; in data set [5] it was 40.6 µM.
Regarding `O=C(Nc1nc(=O)n([C@H]2CC[C@@H](CO)O2)cc1F)c1ccc([N+](=O)[O-])cc1` [Compound 18, β-D-2′,3′-Dideoxy-5-fluoro-N^4-(4-nitrobenzoyl)cytidine], the results for the EC90 in the data set with HIV-1LAl (setting [7]), in the data set with HIV-1RF (setting [8]) and in the data set with HIV-1NL4-3 were 0.18 µM, 0.4 µM and 0.3 µM, respectively. The IC50 was > 100 µM in data set [1]; > 100 µM in data set [2]; > 50 µM in data set [3]; > 100 µM in data set [4]; > 100 µM in [5].
Turning to `Cc1ccc(C(=O)Nc2nc(=O)n([C@H]3CC[C@@H](CO)O3)cc2F)cc1` [Compound 22, β-D-2′,3′-Dideoxy-5-fluoro-N^4-p-toluoylcytidine], the figures for the EC90 with HIV-1LAl (setting [7]), in the data set on HIV-1RF (setting [8]) and in the data set on HIV-1NL4-3 were 0.028 µM, 0.31 µM and 0.23 µM, respectively. The IC50 in [1] is > 100 µM; in data set [2] it was > 100 µM; in [3] it was > 50 µM; in [4], > 100 µM; in data set [5] it was > 100 µM.
Take `CCc1ccc(C(=O)Nc2nc(=O)n([C@H]3CC[C@@H](CO)O3)cc2F)cc1` [Compound 25, β-D-2′,3′-Dideoxy-N^4-(4-ethylbenzoyl)-5-fluorocytidine]: the EC90 with HIV-1LAl (setting [7]) was 0.03 µM; in the data set with HIV-1RF (setting [8]), 0.12 µM; with HIV-1NL4-3, 0.22 µM. Also, the IC50 in data set [1] is > 100 µM; in data set [2], > 100 µM; in [3] it was 50 µM; in data set [4] it was > 100 µM; in data set [5], 89.8 µM.
Regarding `CCCc1ccc(C(=O)Nc2nc(=O)n([C@H]3CC[C@@H](CO)O3)cc2F)cc1` [Compound 26, β-D-2′,3′-Dideoxy-5-fluoro-N^4-(4-n-propylbenzoyl)cytidine], the EC90 with HIV-1LAl (setting [7]) was found to be 0.017 µM; in the data set on HIV-1RF (setting [8]) it was 0.1 µM; in the data set with HIV-1NL4-3 it was 0.22 µM. Also, the IC50 is > 100 µM in [1]; > 100 µM in data set [2]; > 50 µM in [3]; > 100 µM in data set [4]; > 100 µM in [5].
With `O=C(Nc1nc(=O)n([C@H]2C=C[C@@H](CO)O2)cc1F)c1cc2ccccc2s1` [Compound 56, β-D-2′,3′-Didehydro-2′,3′-dideoxy-5-fluoro-N-(benzo[b]thiophene-2-carbonyl)cytidine], the EC90 in the data set on HIV-1LAl (Table 2, read-out: Anti-HIV-1 activity in different cells (EC90, μM) PBM) turned out to be 0.29 µM; in the data set with HIV-1RF (Table 2), 0.3 µM. The IC50 in the data set on human PBM cells was 2.2 µM; in the data set on HepG2 cells, 1.3 µM; with MT-2 cells it was > 50 µM; with Vero cells, 5.6 µM; in data set [6] it was 2.8 µM.
